Experimental data published in patent US20090291919A1, “Compositions and Methods for Treating or Preventing Ophthalmic Light Toxicity” (University of Florida Research Foundation, Inc., priority 2006, published 2009).
Entries after “also recorded” stand apart in the source; their conditions may differ.

Key:
[1] = Absorption of the compound by itself in the visible spectrum
Method: (§1) To test whether this compound associates with wild-type (WT) opsin to form pigment, it was added to opsin solution in vitro.

[2] = tested on: purified WT opsin; assay: Opsin regeneration: pigment (rhodopsin) formation with 11-cis-retinal in presence of compound; conditions: for inhibition of pigment formation of opsin with 11-cis-retinal / of binding of 11-cis-retinal to opsin: in vitro, result in words
Method: In a typical competition assay of the invention, a compound is sought that will tie up the retinal binding pocket of the opsin protein. Thus, the assay seeks to identify a non-retinoid compound (one that will not be tightly regulated by the retina as to amount entering rod cells) that competes with 11-cis-retinal. Over time this will slow the rate of formation of rhodopsin relative to the rate when 11-cis-retinal alone is present. In one embodiment, the assay is conducted in the presence of 11-cis-retinal, and the rate of formation of rhodopsin is measured as a way of determining competition for the retinal binding pocket, for example, by determining the rate of increase in the 500 nm peak characteristic for rhodopsin. No antibodies for rhodopsin are required for this assay.

[3] = tested on: purified wt (wild-type) opsin; assay: Pigment formation of compound alone with opsin (500 nm absorbing pigment); conditions: compound added to opsin without 11-cis-retinal
Method: as §1

Structure (SMILES)	absorption in the visible spectrum [1]	extent of inhibition of regeneration compared with β-ionone ([2]; SN10011 2 and 5 mM vs β-ionone)	inhibition of pigment formation of opsin with 11-cis-retinal / of binding of 11-cis-retinal to opsin [2]	inhibition of pigment formation of opsin with 11-cis-retinal / of binding of 11-cis-retinal to opsin ([2]; listed as SN 10011)	formation of a 500 nm absorbing pigment with opsin [3]
CC(=O)c1c(C)n[nH]c1C [SN10011, 1-(3,5-dimethyl-1H-pyrazol-4-yl)ethanone]	did not show any absorption in the visible spectrum; also recorded: does not absorb in the visible spectrum	much lower	reversibly inhibits binding of 11-cis-retinal; also recorded: significant effect on inhibition of pigment formation; also recorded: inhibited	inhibits the binding of 11-cis-retinal to opsin in vitro	No pigment was formed; also recorded: no 500 nm absorbing pigment was generated
CC(=O)/C=C/C1=C(C)CCCC1(C)C [β-ionone, reference compound]			inhibit binding of retinal to the site; also recorded: inhibited opsin regeneration in a dose dependent manner		does not form a light absorbing pigment; also recorded: does not itself form a 500 nm absorbing pigment; also recorded: no 500 nm absorbing pigment was formed
